Source: US11161876B2, “Anti-inflammatory nanofibers” (Northwestern University, priority 2015, dated 2021)
“Also recorded” adds a separate entry of the source. * marks the point of attachment. C16 alkyl = CCCCCCCCCCCCCCCC*

Legend:
[1] = test system: Rat Bladder Augmentation Model; experiment: Bladder tissue collagen quantification (Masson's Trichrome); assay type: in vivo; details: for mean level of collagen in regenerated bladder tissue: means±SE; for collagen levels, in words: 10 days post-augmentation, compared between groups
Description: (§1) Athymic female rats (weighing ˜200 g and 8-10 weeks old; National Cancer Institute Animal Production Program) underwent bladder augmentation (ref. 15; herein incorporated by reference in its entirety). Athymic rats were chosen for this study to solely examine the innate immune response to inflammation without influence of the adaptive immune response. In order to induce anesthesia, animals were given intraperitoneal injections of 60 mg/kg ketamine and 5 mg/kg xylazine. A second injection consisting of Buprenex (1 mg/kg) was administered subcutaneously to alleviate any pain/discomfort during and following surgical procedures. An approximate 1.5 cm midline vertical skin incision was created to expose the abdominal fascia and muscles. This was immediately followed by the separation of the wall leading to the identification of the bladder. An approximate 70% supratrigonal cystectomy was performed from anterior to posterior creating a clamshell. Immediately prior to bladder augmentation procedures, samples of the pro-inflammatory biological scaffold, small intestinal submucosa (SIS (0.5×0.5 cm); Cook Biotech.) (refs. 12,13,16; herein incorporated by reference in their entireties) were thoroughly dip-coated separately in one of the previously described AIF-PAs following gelation procedures. The sections of SIS were dip-coated for approximately 20 seconds and allowed to adhere to the SIS for an additional 30 seconds. Dip-coating procedures were performed at room temperature in air. The cystectomized bladder defect was then augmented with: 1) SIS (non-AIF-PA coated SIS; n=8 animals over both time-points); 2) AIF-PA1 coated SIS (denoted as SIS/AIF-PA1; n=11 animals over both time-points); 3) AIF-PA2 coated SIS (denoted as SIS/AIF-PA2; n=8 animals over both time-points); 4) AIF-PA3 coated SIS (denoted as SIS/AIF-PA3; n=3); 5) AIF-PA4 coated SIS (denoted as SIS/AIF-PA4; n=3 animals); 6) AIF-PA5 coated SIS (denoted as SIS/AIF-PA5; n=3 animals); and 7) AIFC-PA6 coated SIS (denoted as SIS/AIFC-PA6; n=9 animals over both time-points). The bladder was finally covered with omentum after being closed in a watertight manner utilizing 7-0 polyglactin suture. The abdominal wall was then closed in a single layer with 5-0 ethibond running suture and the skin re-approximated with 9 mm autoclips. Each group was sacrificed at 10 day and 5 week time-points.
Explanted bladder specimens encompassing the entire thickness of the bladder were isolated immediately following euthanasia and processed (ref. 15; herein incorporated by reference in its entirety). Specimens were fixed in a 10% buffered formalin phosphate (Fisher Scientific, Inc.) solution followed by a series of graded ethanol exchanges then embedded in paraffin (Fisher Scientific). Embedded tissues were sectioned onto glass slides at a thickness of 10 μm using a RM2125 RT Microtome (Leica) onto glass slides and subjected to staining with Masson's Trichrome (Sigma-Aldrich Corp.) reagent. The paraffin was removed from tissue containing slides using a hot plate at 62° C. for 6 minutes and was followed by treatment with xylenes, graded ethanol washes and DI water. Slides were placed in Bouin's solution (Sigma-Aldrich Corp.) for approximately 15 min then rinsed under running tap water. The samples were then stained 5 minutes with Hematoxylin and rinsed with running water and subsequently stained with Scarlet-Acid Fuchsin (Sigma-Aldrich Corp.). Slides were rinsed again with DI water and placed into a mixture of PTA/PMA, followed by Aniline Blue solution and a 1% acetic acid wash. Finally, slides were placed in 95-100% ethanol and rinsed in xylene. Following air drying, a coverslip was placed over the specimen sample and secured with Permaslip (Alban Scientific Inc).
Bladder tissue specimens were evaluated for collagen content (refs. 13,15,17; herein incorporated by reference in their entireties). […]

[2] = test system: CD86+ M1 macrophages; experiment: M1 macrophage subtype (CD86) distribution in regenerating bladder tissue; assay type: in vivo, rat; details: for M1 macrophage levels, in words: 10 days to 5 weeks
Description: as §1
(§2) Tissue sections comprised of SIS alone, SIS/AIF-PA1, SIS/AIF-PA2, and SIS/AIF-PA6 augmentations were subjected to immunofluorescence staining by initially undergoing antigen retrieval which consisted of 15 min of boiling in citrate buffer (0.01M citrate solution, pH 6.0 with 0.05% Tween-20) followed by cooling at room temperature for approximately 20 minutes. The antibody staining process consisted of a blocking step for 15 min in bovine serum albumin (BSA, 5 mg/ml) followed by a 40 minutes incubation at room temperature with the primary antibody. After washing with DPBS, slides were incubated for 30 min with a secondary antibody and eventually rinsed with DPBS and air dried. Slides were mounted with Vectashield (Vector Laboratories). Primary antibodies were directed against epitopes for the inflammatory markers CD68 (macrophage) (refs. 18,19; herein incorporated by reference in their entireties) MPO (neutrophil) (ref. 20; herein incorporated by reference in its entirety) or the inflammation-related proteins IL1β, TNFα, IL-10, IL-13, CD206 (M2 macrophage) (refs. 21-25; herein incorporated by reference in their entireties) and CD86 (M1 macrophage) (ref. 26; herein incorporated by reference in its entirety). Antibodies directed against the ECM in regenerating bladder tissue (including COL4A3 and fibronectin) were also utilized. Alexa Red 555 or FITC conjugated secondary antibodies (Molecular Probes) were utilized for visualization (ref. 15; herein incorporated by reference in its entirety). […]

[3] = test system: Rat Bladder Augmentation Model; experiment: Bladder capacity measurement of augmented bladders; assay type: in vivo; details: 5 weeks post-augmentation vs pre-surgery; means ± SE
Description: Athymic female rats (weighing ˜200 g and 8-10 weeks old; National Cancer Institute Animal Production Program) underwent bladder augmentation (ref. 15; herein incorporated by reference in its entirety). Athymic rats were chosen for this study to solely examine the innate immune response to inflammation without influence of the adaptive immune response. In order to induce anesthesia, animals were given intraperitoneal injections of 60 mg/kg ketamine and 5 mg/kg xylazine. A second injection consisting of Buprenex (1 mg/kg) was administered subcutaneously to alleviate any pain/discomfort during and following surgical procedures. An approximate 1.5 cm midline vertical skin incision was created to expose the abdominal fascia and muscles. This was immediately followed by the separation of the wall leading to the identification of the bladder. An approximate 70% supratrigonal cystectomy was performed from anterior to posterior creating a clamshell. Immediately prior to bladder augmentation procedures, samples of the pro-inflammatory biological scaffold, small intestinal submucosa (SIS (0.5×0.5 cm); Cook Biotech.) (refs. 12,13,16; herein incorporated by reference in their entireties) were thoroughly dip-coated separately in one of the previously described AIF-PAs following gelation procedures. The sections of SIS were dip-coated for approximately 20 seconds and allowed to adhere to the SIS for an additional 30 seconds. Dip-coating procedures were performed at room temperature in air. […]
The bladders of anesthetized athymic rats were exposed through the abdomen as previously described. […] Continuous reading of the transvesical pressure was measured and plotted using LabChart 7.3 software (AD Instruments). […] Bladder capacity was measured by a modified protocol (ref. 13; herein incorporated by reference in its entirety). […]

[4] = test system: CD206+ M2 macrophages; experiment: M2 macrophage subtype (CD206) distribution in regenerating bladder tissue; assay type: in vivo, rat; details: for M2 macrophage levels, in words: 10 days to 5 weeks
Description: as §1, §2

Row | Substance | mean level of collagen in regenerated bladder tissue ([1]; 5W post-augmentation) | mean level of collagen in regenerated bladder tissue ([1]; 10D post-augmentation) | collagen levels, in words [1] | number of M1 macrophages ([2]; 5W post-augmentation) | M1 macrophage levels, in words [2] | Bladder Capacity Recovery [3] | number of M2 macrophages ([4]; 5W post-augmentation) | M2 macrophage levels, in words [4] | number of M1 macrophages ([2]; 10D post-augmentation) | number of M2 macrophages ([4]; 10D post-augmentation)
1 | C16-VVVAAAEEEHDMNKVLDL (SEQ ID NO:2) ({C16 alkyl}-VVVAAAEEEHDMNKVLDL-NH2) [SIS/AIF-PA2, anti-inflammatory peptide amphiphile, tested dip-coated on small intestinal submucosa (SIS) scaffold] | 58.0±0.6% | 58.6±0.4% | lesser degrees of collagen | 389.4±62.6 cells/mm^2 | Comparatively low numbers | 104.4 ± 6.7% | 224.7±39.0 cells/mm^2 | Comparatively low numbers |  | 
2 | C16-VVVAAAEEEKLMSQKMVD (SEQ ID NO:6) ({C16 alkyl}-VVVAAAEEEKLMSQKMVD-NH2) [SIS/AIFC-PA6, reference compound] | 68.8±2.7% | 71.5±1.4% |  | 957.7±106.2 cells/mm^2 |  | 105.4 ± 5.1% | 539.3±46.7 cells/mm^2 |  | 986.9±18.1 cells/mm^2 | 842.5±18.9 cells/mm^2
3 | C16-VVVAAAEEEMQMKKVLDS (SEQ ID NO:1) ({C16 alkyl}-VVVAAAEEEMQMKKVLDS-NH2) [SIS/AIF-PA1, anti-inflammatory peptide amphiphile, tested dip-coated on small intestinal submucosa (SIS) scaffold] | 55.0±1.2% | 59.1±1.1% | lesser degrees of collagen | 343.4±45.4 cells/mm^2 | dropped considerably; also recorded: significant decline over time | 112.1 ± 3.3% | 301.7±23.0 cells/mm^2 | further decreased by 5 weeks |  | 
